The source of these data is patent US20090292012A1, “Therapeutic Agent” (priority 2005, published 2009).

The subject of one series is RAW 264.7 cells. In words: Determination of anti-foaming in macrophage (cholesterol ester accumulation with Ac-LDL). Format: cell-based. The following applies: Ac-LDL 20 μg/mL, 24 hours. As for the experimental part: Macrophage introduces a modified LDL (such as acetyl LDL (Ac-LDL) into a cell to synthesize cholesterol ester, thereby foaming. An anti-foaming activity for the macrophage with each subject sample was determined.
RAW 264.7 cells (ATCC TIB 71) were suspended in Dulbecco's modified Eagle's medium (manufactured by Sigma, D5796) containing 10% fetal bovine serum (manufactured by Cambrex Corporation), so as to have a concentration of 4×10^5 cells/ml, and the suspension was put to each well of a 24-well microtiter plate in an amount of 1 ml per well. The cells were cultured at 37° C. overnight in the presence of 5% carbon dioxide gas. Next, the medium was exchanged with UltraCHO media (manufactured by Cambrex Corporation, B2724) and 2 μL of the dimethyl sulfoxide solution of each of the subject samples prepared in the above-mentioned Preparation Examples was added to each well so as to have a concentration shown in the following Table 1. Here, the purified ethanol extract fraction from a leaf of Peucedanum japonicum -Fr. 2-2 was used for 3′-acetoxy-4′-senecioyloxy-3′,4′-dihydroseselin in Table 1. Further, Ac-LDL (manufactured by Biomedical Technology, Inc., BT-906) at a final concentration of 20 μg/mL was added to each well, and each mixture was cultured for 24 hours. Here, there were set a group without addition of Ac-LDL and a group with addition of dimethyl sulfoxide as controls.
The total amount of cholesterol in a cell and the amount of free cholesterol were determined to calculate the amount of cholesterol ester as an index for anti-foaming for macrophage.
After the termination of the culture, the medium was removed, and the cells were washed with a 0.3% (w/v) BSA (manufactured by Sigma, A-8022) containing phosphate buffered saline and further washed with a phosphate buffered saline. The amount 0.5 mL of a solvent of hexane:isopropanol=3:2 was added to the cells. The mixture was allowed to stand at room temperature for 30 minutes, and thereafter the supernatant was collected. The procedures were repeated again, and a total of 1 mL of the supernatant was concentrated to dryness. The precipitate was dissolved in 30 μL of isopropanol, and thereafter the total amount of cholesterol contained in 10 μL of the resulting solution was determined with Cholesterol E-Test (manufactured by Wako Pure Chemical Industries, Ltd., 439-17501) and the amount of free cholesterol was determined with Free Cholesterol E-Test (manufactured by Wako Pure Chemical Industries, Ltd., 435-35801). All of the determinations were carried out twice. The amount of biosynthesis of cholesterol ester was determined by subtracting the amount of free cholesterol from the total amount of cholesterol. The anti-foaming activity was calculated in accordance with the following formula. […]

For another series, the system named is ACAT. Kind of series: Determination of inhibitory activity for ACAT, rat liver microsome, [3H]oleoyl-CoA. It is filed as biochemical. The following applies: relative to 10 μM FR179254 set as 100%. As for the experimental part: Four of Sprague-Dawley rats were bred for one week and thereafter sacrificed, and the livers were immediately excised. The excised livers were shortly washed with cold brine, and thereafter immersed (25 mL/a rat) into sucrose buffer (0.3 M sucrose, 50 mM Tris-HCl, 1 mM EDTA, 50 mM NaCl, pH 7.4). The resulting livers were homogenized, and the procedures of centrifuging at 10,000×g for 30 minutes and removing the formed precipitates were repeated twice for the homogenized livers. The resulting supernatant was centrifuged at 105,000×g for 70 minutes, and the precipitates were collected and suspended in an appropriate amount of 100 mM phosphate buffer (pH 7.4). The suspension was again suspended in the phosphate buffer so as to have a protein concentration of 10 mg/ml, and EDTA was added thereto so as to have a final concentration of 1 mM. Thereafter, the suspension was subjected to frozen storage at −80° C. until being used.
The enzymatic activity of ACAT was determined according to the partially modified method of Lee et al. (Planta Med., 2004, 70, 678-679).
In a 1.5 mL Eppendorf tube, 1 μL of a dimethyl sulfoxide solution of each subject sample was added to a 92 μL of a reaction aqueous solution (0.05 M potassium phosphate, 1 mM dithiothreitol, 9 mg/mL fatty acid-free bovine serum albumin, 200 μg/mL cholesterol, pH 7.4) containing 1.5 μL of the rat liver microsome prepared in item (1) of Example 2 so as to have a final concentration described in Table 2, and the mixture was incubated at 37° C. for 30 minutes. Here, the purified ethanol extract fraction from a leaf of Peucedanum japonicum -Fr. […] The radioactivity was determined with a liquid scintillation counter LS6500 (manufactured by Beckmann) using 150 μL of the resulting supernatant with Ultima Gold (manufactured by PerkinElmer Life Sciences Inc., 6013329) as a scintillation cocktail. […] The inhibitory activity for ACAT (%) of each of the subject samples was calculated in accordance with the following formula setting an inhibitory ratio upon addition of 10 μM FR179254 which is a positive control as 100%. […]

In the next series the test system is mouse. In words: Single oral dose toxicity in mouse. It is filed as in vivo. Particulars: 1 g/kg weight. The method, then: No toxicity is found even when the above-mentioned effective ingredient used in the present invention is administered in an effective dose for the exhibition of its action in a living body.

For the compound `CC(=O)OC1C(OC(=O)C=C(C)C)c2c(ccc3ccc(=O)oc23)OC1(C)C` (centres unmarked) [3′-acetoxy-4′-senecioyloxy-3′,4′-dihydroseselin], in the series on RAW 264.7 cells (Mus musculus, RAW264.7, final concentration 20 μM), 20 µM produced 19% inhibition. In addition, the inhibition at 40 µM in the series with RAW 264.7 cells (Mus musculus, RAW264.7, final concentration 40 μM) stood at 98%. Further, the “Anti-Foaming Activity (%)” value in the series with RAW 264.7 cells (final concentration 0.1 %) amounted to 34%; with RAW 264.7 cells (final concentration 0.2 %), 72%. In addition, the “Inhibitory Activity for ACAT (%)” value in the series on ACAT (final concentration 25 μM) is 40%; with ACAT (final concentration 50 μM) it was 65%; with ACAT (final concentration 100 μM), 87%. Moreover, in the series with mouse, the “deaths after oral administration” value is “no cases of deaths are found”.
